Entries after “also recorded” stand apart in the source; their conditions may differ.
Legend:
Caco-2 cells [1] = assay: MTS assay, Caco-2; assay type: cell-based, human; settings: for cell metabolic activity down-regulated to (MTS): Caco-2, 72 h, strongest effects
Procedure: (§1) Human fibroblast (BJ; Cat# CRL-2522), human pancreatic cancer (PANC-1; Cat# CRL-1469), human breast cancer (MDA-MB-231; Cat# HTB-26); human brain glioma cells (U-118 MG; Cat# HTB-15), human melanoma (SK-MEL-30; Cat# ACC 151) and human colon carcinoma (Caco-2; Cat# HTB-37) were purchased from ATCC (Manassas, VA, USA) or DSMZ (Braunschweig, Germany). The cell lines were routinely maintained in the medium recommended by the manufacturer—MEM, DMEM, or RPMI (Corning, New York, NY, USA) with L-glutamine, 4.5 g/L glucose, and sodium pyruvate and supplemented with 10% FBS for BJ, PANC-1, MDA-MB-231, U-118 MG, and SK-MEL-30 or 20% FBS for Caco-2. All cell lines were cultured in a humidified CO2 incubator at 37 °C. For assays, cells were seeded at a constant density of 5 × 10^3 cells/0.32 cm^2 for Caco-2, PANC-1, MDA-MB-231, U-118 MG, and SK-MEL-30 or 2 × 10^3 cells/0.32 cm^2 for BJ.
(§2) MTS assay was performed as described elsewhere. Cell lines were seeded in a 96-well plate 24 h prior to treatment. Compounds 3a–3i were tested in a 10–500 µM concentration range and treated for 72 h. Next, the MTS solution was added for 3h and incubated at 37 °C. Absorbance was measured at 590 nm and 620 nm wavelengths using a Synergy H1 microplate reader (BioTek Instruments, San Diego, CA, USA).

11β-HSD1 = target: T1, 11β-HSD1 (Homo sapiens, UniProt P28845); assay: 11β-HSD1 inhibition assay (cortisone to cortisol, human liver microsomes, cortisol ELISA); assay type: biochemical; settings: for inhibition at 10 µM: at a concentration of 10 µM; for inhibition at 10 µM / IC50: human liver microsomes; for selectivity 11β-HSD1 versus 11β-HSD2: compared on % inhibition at 10 µM, versus carbenoxolone; for IC50: unit printed in text (b17-b19)
T1 construct: human liver microsomes were used as a source of the 11β‐HSD1 enzyme; tissue XenoTech Lot No.1410013; host or cells: pooled human liver microsomes, mixed gender
Procedure: 11β-Hydroxysteroid dehydrogenase type 1 and type 2 inhibition assays were performed as previously described. For more details, see the Supplementary Materials.
Detailed protocols of enzyme inhibition assays
1. Inhibition of 11β‐HSD Assays […]
tetrasodium salt, phosphate buffer powder, (Sigma‐Aldrich, Poznań, Poland), Pooled human liver microsomes, mixed gender, 1 mL, 20 mg/mL Lot No.1410013 ‐ XenoTech, Cortisol Elisa Ref DkO001 Lot […]
No. L211008799 – (Cloud‐Clone Corp., Wuhan, China), PBS Lot No. H161008 (Pan Biotech, Aidenbach, […]
liver microsomes were used as a source of the 11β‐HSD1 enzyme. Standard 96‐well microplates were filled with a reagent mixture: cortisone/NADPH (20 μ l, to obtain a final concentration of 200 nM / 2 μ M), […]
water. The resulting solution (final volume 100 μ l) was incubated for 2.5 h at 37°C. To stop the reaction, 10 μl of a 100 μM solution of 18β‐glycyrrhetinic acid in PBS was added. Cortisol levels resulting from the reaction were measured using a commercially available ELISA kit.
(§3) Solvents and reagents: 18‐beta‐glycyrrhetinic acid – (Acros Organic, Geel, Belgium), cortisone, NAD cofactor, phosphate buffer powder (Sigma‐Aldrich, Poznań, Poland), Human Kidney Microsomes, […]
(§4) ‐ (DiaMetra, Spello, Italy), Enzyme‐Linked Immunosorbent Assay (ELISA) Kit for 11‐Beta‐ Hydroxysteroid Dehydrogenase Type 2 Lot No. L191113457 ‐ (Cloud‐Clone Corp., Wuhan, China), PBS Lot No. H161008 (Pan Biotech, Aidenbach, Germany). […]
(§5) kidney microsomes were used as a source of the 11β‐HSD2 enzyme. Standard 96‐well microplates were filled with a reagent mixture: cortisol/NAD+ (20 μL, to obtain a final concentration of 200 nM / 2 μM), […]
(§6) The resulting solution (final volume of 100 μL) was incubated for 2.5 h at 37°C. […]
(§7) levels were measured using a commercially available ELISA kit.
(§8) 1.3. Determination of IC50 […]
(§9) conditions described in the sections above. Analogous assays without added inhibitors were performed as controls. The IC₅₀ value, defined as the concentration of inhibitor causing a 50% reduction in cortisol or cortisone, was read directly from the graph.

11β-HSD2 = target: T2, 11β-HSD2 (Homo sapiens, UniProt P80365); assay: 11β-HSD2 inhibition assay (cortisol to cortisone, human kidney microsomes, cortisol ELISA); assay type: biochemical; settings: at a concentration of 10 µM
T2 construct: human kidney microsomes were used as a source of the 11β‐HSD2 enzyme; tissue XenoTech Lot No. 1710160; host or cells: human kidney microsomes, mixed gender
T2 sequence (P80365 1-405): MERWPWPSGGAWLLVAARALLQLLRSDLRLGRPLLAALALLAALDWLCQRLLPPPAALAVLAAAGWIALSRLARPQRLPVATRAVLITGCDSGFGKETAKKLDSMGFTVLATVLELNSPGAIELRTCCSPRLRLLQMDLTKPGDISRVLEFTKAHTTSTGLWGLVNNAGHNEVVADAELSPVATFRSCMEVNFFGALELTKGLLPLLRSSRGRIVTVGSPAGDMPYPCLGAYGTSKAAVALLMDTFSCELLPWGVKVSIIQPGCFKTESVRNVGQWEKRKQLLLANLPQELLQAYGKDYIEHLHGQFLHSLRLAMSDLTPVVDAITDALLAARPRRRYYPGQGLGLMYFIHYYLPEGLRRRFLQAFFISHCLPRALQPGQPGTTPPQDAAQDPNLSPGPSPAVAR
Procedure: 11β-Hydroxysteroid dehydrogenase type 1 and type 2 inhibition assays were performed as previously described. For more details, see the Supplementary Materials. […]
as §3, §4, §5, §6, §7, §8, §9

U-118 MG cells = assay: MTS assay, U-118 MG; assay type: cell-based, human; settings: 72 h
Procedure: as §1, §2

Caco-2 cells [2] = assay: Intracellular redox homeostasis (ROS, RNS, GSH), Caco-2; assay type: cell-based, human; settings: Caco-2, 500 µM, 72 h
Procedure: as §1
(§10) Based on the MTS assay, a toxic concentration of 500 µM of each compound was selected for redox analysis for all cell lines. Cell lines were seeded at the standard density in 96-well black plates. […] The signal measurement was taken with a Synergy H1 microplate reader (BioTek Instruments, CA, USA).

SK-MEL-30 cells [3] = assay: Intracellular redox homeostasis (ROS, RNS, GSH), SK-MEL-30; assay type: cell-based, human; settings: SK-MEL-30, 500 µM, 72 h
Procedure: as §1, §10

MDA-MB-231 cells = assay: MTS assay, MDA-MB-231; assay type: cell-based, human; settings: for cell metabolic activity down-regulated to (MTS): MDA-MB-231, 72 h, strongest effects
Procedure: as §1, §2

SK-MEL-30 cells [4] = assay: MTS assay, SK-MEL-30; assay type: cell-based, human; settings: for cell metabolic activity down-regulated to (MTS): SK-MEL-30, 72 h, strongest effects
Procedure: as §1, §2

PANC-1 cells = assay: MTS assay, PANC-1; assay type: cell-based, human; settings: PANC-1, 72 h
Procedure: as §1, §2

BJ cells = assay: Intracellular redox homeostasis (ROS, RNS, GSH), BJ; assay type: cell-based, human; settings: 500 µM, 72 h
Procedure: as §1, §10

T1 sequence (P28845 whole entry): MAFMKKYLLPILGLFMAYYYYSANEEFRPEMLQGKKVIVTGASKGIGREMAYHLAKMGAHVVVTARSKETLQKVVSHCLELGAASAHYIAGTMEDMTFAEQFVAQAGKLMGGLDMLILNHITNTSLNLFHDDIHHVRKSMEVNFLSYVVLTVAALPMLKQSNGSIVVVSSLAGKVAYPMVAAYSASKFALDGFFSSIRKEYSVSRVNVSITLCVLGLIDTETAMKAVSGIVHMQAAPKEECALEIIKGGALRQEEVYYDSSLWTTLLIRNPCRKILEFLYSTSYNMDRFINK

Structure (SMILES)	concentration at which a decrease in cell viability is observed (Caco-2 cells [1]; Caco-2, MTS, 72 h)	inhibition at 10 µM (11β-HSD1) [%]	selectivity 11β-HSD1 versus 11β-HSD2 (11β-HSD1)	IC50 (11β-HSD1) [nM]	inhibition at 10 µM (11β-HSD2) [%]	highest increase in proliferation (metabolic activity, MTS) (U-118 MG cells)	ROS level (Caco-2 cells [2])	cell metabolic activity down-regulated to (MTS) (Caco-2 cells [1])	ROS level (SK-MEL-30 cells [3])	cell metabolic activity down-regulated to (MTS) (MDA-MB-231 cells)	cell metabolic activity down-regulated to (MTS) (SK-MEL-30 cells [4])	highest increase in proliferation (metabolic activity, MTS) (PANC-1 cells)	change of cell viability / metabolic activity (Caco-2 cells [1]; Caco-2, MTS, 72 h, 10–500 µM)	change of cell viability / metabolic activity (SK-MEL-30 cells [4]; SK-MEL-30, MTS, 72 h, 10–500 µM)	concentration at which a decrease in cell viability / metabolic activity is observed (MDA-MB-231 cells; MDA-MB-231, MTS, 72 h) [µM]	change of cell viability / metabolic activity (MDA-MB-231 cells; MDA-MB-231, MTS, 72 h, 10–500 µM)	ROS level (BJ cells)
CC1SC(NC2CCCCC2)=NC1=O (stereo not drawn) [Compound 3a, 2-(Cyclohexylamino)-5-methylthiazol-4(5H)-one]	above 200 µM	27.5 ± 2.12	greater inhibitory activity towards 11β-HSD2 than 11β-HSD1	> 10000	42 ± 2.5	115–134%	increase in ROS production										
CCC1SC(NC2CCCCC2)=NC1=O (stereo not drawn) [Compound 3b, 2-(Cyclohexylamino)-5-ethylthiazol-4(5H)-one]	above 200 µM	68.5 ± 4.28		570 ± 60	38.3 ± 9.96		increase in ROS production	30–54%	increase in ROS production	30–54%							
CCCC1SC(NC2CCCCC2)=NC1=O (stereo not drawn) [Compound 3c, 2-(Cyclohexylamino)-5-propylthiazol-4(5H)-one]		85.7 ± 4.43		400 ± 5	47.1 ± 0.82					30–54%	30–54%						
CC(C)C1SC(NC2CCCCC2)=NC1=O (stereo not drawn) [Compound 3d, 2-(Cyclohexylamino)-5-isopropylthiazol-4(5H)-one]	above 200 µM	90.4 ± 2.74	greater selectivity than the standard compound	80 ± 15	47 ± 1.67						30–54%						
CC1(C)SC(NC2CCCCC2)=NC1=O [Compound 3e, 2-(Cyclohexylamino)-5,5-dimethylthiazol-4(5H)-one]	above 200 µM	82.6 ± 1.79		300 ± 50	38.6 ± 5.56			30–54%				115–134%					
O=C1N=C(NC2CCCCC2)SC1c1ccccc1 (stereo not drawn) [Compound 3f, 2-(Cyclohexylamino)-5-phenylthiazol-4(5H)-one]		83.8 ± 4.53		170 ± 35	40 ± 8.34						30–54%	115–134%					
O=C1N=C(NC2CCCCC2)SC1c1ccc(Br)cc1 (stereo not drawn) [Compound 3g, 5-(4-Bromophenyl)-2-(cyclohexylamino)thiazol-4(5H)-one]	1 µM	90.2 ± 1.59	greater selectivity than the standard compound	70 ± 8	47.2 ± 1.17	115–134%		30–54%		30–54%	30–54%		vigorous inhibitory activity	vigorous inhibitory activity	75	vigorous inhibitory activity	
O=C1N=C(NC2CCCCC2)SC12CCCCC2 [Compound 3h, 2-(Cyclohexylamino)-1-thia-3-azaspiro [4.5]dec-2-en-4-one]		94 ± 2.35	greater selectivity than the standard compound; also recorded: better activity and selectivity than carbenoxolone	40 ± 4	45.6 ± 5.28			30–54%		30–54%		115–134%					increase in ROS
O=C1N=C(NC2CCCCC2)SC12CCC2 [Compound 3i, 6-(Cyclohexylamino)-5-thia-7-azaspiro [3.4]oct-6-en-8-one]	above 200 µM	87.3 ± 0.99		90 ± 16	51 ± 0.73	115–134%		30–54%		30–54%							increase in ROS
